Results as given in US20070003531A1, “Methods for improving immunotherapy by enhancing survival of antigen-specific cytotoxic T lymphocytes” (University of Connecticut, priority 2005, published 2007).
“Also recorded” adds a separate entry of the source.

Experiments:
[1] = test system: phosphorylated Bim in CTL; experiment: Generation of short phosphorylated Bim fragment in CTL during AICD; assay type: cell-based, human; conditions: CTLs encountering the MART-1 peptide
Text: FIG. 16. Mitochondrial localization of JNK in the CTL. (A)—Heavy membrane fractions from CTLs in steady state (C), restimulated by the cognate peptide (M1) and control peptide (M3) and the corresponding cytosolic fractions (S-100) were probed for the presence for JNKs. As shown, JNK preferentially localized in the membrane fraction. (B)—The generation of short pBim fragment during AICD and the effect of SP600125 on the generation of this fragment. Mart-1 epitope specific control CTLs (c), and CTLs encountering the cognate peptide (M1), or encountering a control peptide (M3) and encountering the cognate peptide in the presence of SP600125 (SP) or encountering the cognate peptide in the presence of ERK1/2 inhibitor (PD)were probed with an anti-phosphorylated Bim antibody. A phosphorylated short fragment of Bim is generated in the CTLs encountering the MART-1 peptide and this is blocked by SP600125. (C)—Western blot of whole cell lysate of CTLs showing interaction between JNK and VDAC in CTLs (c=control, M1=CTL restimulated by the cognate peptide) Anti-CD8 Ab was used as a control antibody for immunoprecipitation.

[2] = test system: c-jun phosphorylation/activation in Jurkat T cells; experiment: JNK activation assay in PMA/ionomycin stimulated Jurkat cells; assay type: cell-based, human; conditions: PMA (10 ng/ml)/ionomycin (0.5 μM); SP600125 25 μM
Experimental: FIG. 1. […] (A) Effect of the JNK inhibitor SP600125 on AICD in the MART-127-35 epitope specific CTL. Histogram represents FACS analysis of the percent of MART-127-35 epitope specific CTLs that were tetramer positive and annexin negative after restimulation with MAGE-3271-279 control peptide (M3) pulsed T2 cells or MART-127-35 peptide (M1) pulsed T2 cells either alone or re-stimulated after pre-incubation with JNK inhibitor SP600125, p38-kinase inhibitor SB203580, ERK1/2 inhibitor PD98059 or caspase-inhibitor z-VAD-fink. MAGE-3271-279. (B) JNK activation results in phosphorylation of c-Jun during AICD in CTL that is blocked by SP600125. Immunoblots show analyses of CTL extracts probed with anti-phosphor-c-Jun, anti-c-Jun, and anti-actin antibodies. […] (i) Jurkat cells were treated with PMA+ionomycin in the absence or presence of SP600125 and JNK activation (c-Jun phosphorylation) was assessed with anti-phospho-c-Jun antibody. […] (ii) Jurkat cells were treated with Staurosporine for 1 and 4 hrs in the absence (S) or presence of caspase inhibitor, z-VAD-fmk (CI), JNK inhibitor, SP600125 (SP) or ERK1/2 inhibitor PD98059 (PD) and cleavage of PARP was detected by immunoblotting, using actin as a loading control. […] Percent annexin positive cells in all samples were quantified by FACS analysis and shown below the blot […]

[3] = test system: MART-127-35 epitope specific CTLs; experiment: Chromium release microcytotoxicity assay; assay type: cell-based; conditions: % specific lysis of peptide loaded T2 cells; inhibitor 25 μM
[4] = test system: AIF translocation in MART-127-35 specific CTL; experiment: Mitochondrio-nuclear translocation/release of AIF in CTL during AICD; assay type: cell-based, human; conditions: CTL restimulated by cognate epitope
Text: FIG. 14. Nuclear translocation of AIF and effect of SP600125 on the AIF release and such translocation. The MART-1 epitope specific CTLs generated in the in vitro CTL generation protocol were restimulated by the cognate epitope or a control epitope in the presence or absence of the JNK inhibitor SP600125. (A) Western blot of heavy membrane faction (HM) and cytosolic fraction (S-100) of control CTL (C) and CTLs restimulated by the cognate peptide (M1). As shown, AIF is released in the cytosol of CTLs encountering the cognate peptide without any release of cytochrome c. (B) Effect of SP600125 on AIF release in CD3 induced AICD in Jurkat cells. As shown, AIF is released without cytochrome c release in these cells and SP600125 interferes with the AIF release. (C) Densitometric analysis of the SP600125 effect on AIF release.
Sub-cellular Fractionation. Sub-cellular fractionation was done according to Gross, et al., with minor modifications. Heavy membrane and light membrane fractions were solublized in RIPA buffer supplemented with protease inhibitors and the proteins extracted from heavy membrane (HM), light membrane (LM) and supernatant (S-100) fractions were analyzed by immuno-blot analysis.
Immunofluorescence microscopy. […] The cells were fixed with 4% para-formaldehyde in PBS and stained with appropriate antibodies for co-localization of proteins by fluorescence microscopy. […]

SMILES: O=C1c2ccccc2-c2n[nH]c3cccc1c23 [SP600125, anthra[1,9-cd]pyrazol-6(2H)-one]
- generation/phosphorylation of short phosphorylated Bim fragment [1]: inhibitable; also recorded: blocked
- c-Jun activation (phosphorylation) in Jurkat cells [2]: inhibitory effect; also recorded: abrogates
- cytotoxic function of CTLs in presence of inhibitor [3]: did not affect; also recorded: does not affect
- mitochondrio-nuclear translocation/release of AIF in CTL [4]: blocks; also recorded: blocking effect
